Results reported in the supplement of paper PMC11061612.

Assays:
Test in all cases: Bliss excess, mean over the matrix (fraction); higher = more synergy
[1] = system: 22RV1 (Prostate Carcinoma)
Outline: (§1)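 Cell lines in DMEM/F12 or RPMI with 10% FBS were plated in 1536-well plates, held 24 hours at 37°C, 5% CO2, then given two-drug dose matrices for 72 hours (DMSO typically 0.2%). Viability was read by CellTiter-Glo 2.0 luminescence and scaled as inhibition from 0 (vehicle wells) to 1 (blank wells). Combination Emax is the second-highest inhibition in the matrix; Bliss excess is observed combination effect minus expected EA + EB − EA·EB, EA and EB being single-agent effects.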

[2] = system: 769-P (Kidney Carcinoma)
Outline: as §1

[3] = system: A2780 (Ovarian Carcinoma)
Outline: as §1

[4] = system: CGTH-W-1 (Thyroid Gland Carcinoma)
Outline: as §1

[5] = system: HCC1395 (Breast Carcinoma)
Outline: as §1

[6] = system: HCC70 (Breast Carcinoma)
Outline: as §1

[7] = system: IM-9 (Non-Cancerous)
Outline: as §1

[8] = system: JHH-2 (Hepatocellular Carcinoma)
Outline: as §1

[9] = system: JHU-022 (Oral Cavity Carcinoma)
Outline: as §1

[10] = system: KYSE-220 (Esophageal Squamous Cell Carcinoma)
Outline: as §1

[11] = system: LU-165 (Small Cell Lung Carcinoma)
Outline: as §1

[12] = system: MDA-MB-436 (Breast Carcinoma)
Outline: as §1

[13] = system: MHH-ES-1 (Ewing's Sarcoma)
Outline: as §1

[14] = system: NCI-H1651 (Lung Adenocarcinoma)
Outline: as §1

[15] = system: NCI-H1703 (Squamous Cell Lung Carcinoma)
Outline: as §1

[16] = system: NCI-H2087 (Lung Adenocarcinoma)
Outline: as §1

[17] = system: NCI-H441 (Lung Adenocarcinoma)
Outline: as §1

[18] = system: PEO1 (Ovarian Carcinoma)
Outline: as §1

[19] = system: SK-HEP-1 (Hepatocellular Carcinoma)
Outline: as §1

[20] = system: WM1552C (Melanoma)
Outline: as §1

SMILES | Bliss excess [1] | Bliss excess [2] | Bliss excess [3] | Bliss excess [4] | Bliss excess [5] | Bliss excess [6] | Bliss excess [7] | Bliss excess [8] | Bliss excess [9] | Bliss excess [10] | Bliss excess [11] | Bliss excess [12] | Bliss excess [13] | Bliss excess [14] | Bliss excess [15] | Bliss excess [16] | Bliss excess [17] | Bliss excess [18] | Bliss excess [19] | Bliss excess [20]
Cc1cc2ncnn2cc1Nc1ncc2c(n1)n(C1CCOCC1)c(=O)n2C [AZD7648] + CCN(CCO)CCCOc1ccc2c(Nc3cc(CC(=O)Nc4cccc(F)c4)[nH]n3)ncnc2c1 [AZD2811] (first compound max 10 µM, 7x7, partner max 1 µM) | -0.022 | 0.0313 | 0.0122 | 0.0363 | -0.0181 | -0.0203 | -0.0432 | -0.0763 | 0.028 | 0.0544 | -0.0339 | -0.0452 | 0.0263 | 0.0404 | -0.0392 | -0.0209 | -0.0502 | -0.0141 | 0.0517 | 0.0025
Cc1cc2ncnn2cc1Nc1ncc2c(n1)n(C1CCOCC1)c(=O)n2C [AZD7648] + CN(C)CCCOc1ccc(-c2ccc3ncc4c(c3c2)n(C2CCOCC2)c(=O)n4C)cn1 [AZD0156] (first compound max 10 µM, 7x7, partner max 1 µM) | -0.0334 | -0.0086 | -0.0148 | 0.0015 | -0.0273 | -0.0122 | -0.0509 | -0.0441 | -0.057 | 0.0204 | 0.0071 | -0.0147 | 0.0138 | 0.0089 | -0.033 | -0.0115 | -0.0016 | -0.0136 | -0.0146 | 0.0249
Cc1cc2ncnn2cc1Nc1ncc2c(n1)n(C1CCOCC1)c(=O)n2C [AZD7648] + COc1cc([C@@H]2c3cc4c(cc3[C@@H](O[C@@H]3O[C@@H]5CO[C@@H](C)O[C@H]5[C@H](O)[C@H]3O)[C@H]3COC(=O)[C@H]23)OCO4)cc(OC)c1O [Etoposide] (first compound max 10 µM, 7x7, partner max 10 µM) | 0.0583 | 0.0859 | 0.085 | 0.0595 | -0.013 | 0.0677 | 0.12 | -0.0132 | 0.0522 | 0.066 | -0.0132 | 0.0189 | 0.105 | 0.073 | 0.0532 | 0.0674 | 0.0013 | 0.0461 | 0.0472 | 0.0922
Cc1cc2ncnn2cc1Nc1ncc2c(n1)n(C1CCOCC1)c(=O)n2C [AZD7648] + C[C@@H]1COCCN1C2=NC(=NC(=C2)C3(CC3)[S@](=N)(=O)C)C4=C5C=CNC5=NC=C4 [AZD6738] (first compound max 10 µM, 7x7, partner max 10 µM) | -0.0179 | 0.0264 | 0.0061 | 0.0191 | 0.0361 | -0.0058 | -0.0417 | -0.073 | 0.0105 | -0.0122 | 0.0351 | 0.0316 | 0.0275 | 0.0217 | 0.0089 | 0.0177 | 0.0095 | -0.0121 | 0.0239 | 0.0143
Cc1cc2ncnn2cc1Nc1ncc2c(n1)n(C1CCOCC1)c(=O)n2C [AZD7648] + O=C(c1cc(Cc2n[nH]c(=O)c3ccccc23)ccc1F)N1CCN(C(=O)C2CC2)CC1 [Olaparib] (first compound max 10 µM, 7x7, partner max 10 µM) | -0.0832 | -0.024 | -0.0213 | -0.0412 | -0.0871 | -0.0292 | -0.0144 | -0.0099 | -0.0682 | -0.0372 | -0.102 | -0.0522 | -0.0218 | -0.0356 | -0.0307 | -0.0207 | -0.0555 | -0.0374 | -0.0428 | -0.0418
Cc1nc(Nc2ncc(C(=O)Nc3c(C)cccc3Cl)s2)cc(N2CCN(CCO)CC2)n1 [Dasatinib] + CC(=O)Nc1cccc(-n2c(=O)n(C3CC3)c(=O)c3c(Nc4ccc(I)cc4F)n(C)c(=O)c(C)c32)c1 [Trametinib] (first compound max 2 µM, 7x7, partner max 1 µM) | -0.0578 | -0.0331 | 0.029 | -0.0129 | -0.0332 | -0.0217 | -0.0439 | -0.076 | -0.0483 | -0.0522 | -0.04 | -0.044 | -0.0487 | -0.042 | -0.0483 | -0.0024 | 0.024 | -0.0433 | -0.0294 | 0.0003
COc1cc2ncnc(Nc3ccc(F)c(Cl)c3)c2cc1OCCCN1CCOCC1 [Gefitinib] + CC(C)n1c(=O)n(C)c2cnc3cc(F)c(-c4ccc(OCCCN5CCCCC5)nc4)cc3c21 [AZD1390] (first compound max 10 µM, 7x7, partner max 0.3 µM) | -0.079 | -0.0722 | -0.0704 | -0.0417 | -0.0265 | -0.0536 | -0.0511 | -0.0446 | -0.053 | -0.0059 | -0.0477 | -0.0402 | -0.0611 | -0.0554 | 0.0012 | -0.135 | -0.047 | -0.0346 | 0.0092 | -0.0589
COc1cc2c(cc1OCCCCCOc1cc3c(cc1OC)C(=O)N1C=C(C)C[C@H]1C=N3)N=C[C@@H]1CC(C)=CN1C2=O [SG3199] + O=C(c1cc(Cc2n[nH]c(=O)c3ccccc23)ccc1F)N1CCN(C(=O)C2CC2)CC1 [Olaparib] (first compound max 0.001 µM, 7x7, partner max 10 µM) | -0.0421 | -0.0643 | -0.0404 | -0.0332 | -0.0449 | -0.0252 | -0.0059 | -0.0244 | -0.0479 | -0.0151 | -0.0532 | -0.0412 | -0.0454 | -0.0788 | -0.0451 | -0.0224 | -0.0871 | -0.0397 | -0.0582 | -0.0462
N#Cc1cnc(Nc2cc(NC[C@H]3CNCCO3)c(C(F)(F)F)cn2)cn1 [SRA737] + C=CCn1c(=O)c2cnc(Nc3ccc(N4CCN(C)CC4)cc3)nc2n1-c1cccc(C(C)(C)O)n1 [AZD1775] (first compound max 10 µM, partner max 1 µM) | 0.0367 | 0.0166 | 0.097 | -0.0074 | 0.0559 | 0.0276 | 0.156 | -0.008 | -0.0533 | 0.0983 | 0.0319 | -0.0132 | 0.0231 | 0.0846 | 0.0391 | 0.0238 | -0.0403 | -0.0117 | -0.0452 | -0.0052
N#Cc1cnc(Nc2cc(NC[C@H]3CNCCO3)c(C(F)(F)F)cn2)cn1 [SRA737] + CCc1c2c(nc3ccc(O)cc13)-c1cc3c(c(=O)n1C2)COC(=O)[C@]3(O)CC [SN-38] (first compound max 10 µM, 7x7, partner max 0.3 µM) | -0.0792 | -0.0284 | -0.0496 | -0.0377 | -0.0012 | -0.0249 | 0.0219 | 0.0131 | -0.0966 | 0.0163 | -0.0704 | -0.031 | -0.0259 | -0.0101 | -0.0606 | 0.0137 | -0.0258 | -0.0697 | -0.0793 | -0.0777
N#Cc1cnc(Nc2cc(NC[C@H]3CNCCO3)c(C(F)(F)F)cn2)cn1 [SRA737] + O=c1[nH]cc(F)c(=O)[nH]1 [5-Fluorouracil] (first compound max 10 µM, 7x7, partner max 20 µM) | 0.0268 | -0.112 | -0.0066 | 0.0467 | -0.0584 | 0.0824 | 0.0007 | 0.0695 | -0.0078 | -0.0134 | -0.082 | 0.0202 | 0.0337 | -0.0323 | -0.0304 | -0.0122 | -0.0258 | 0.0228 | -0.122 | 0.0347
C[C@@H](c1ccc2nccn2c1)n1nnc2ncc(-c3cnn(C)c3)nc21 [Savolitinib] + CC1(C)CCC(CN2CCN(c3ccc(C(=O)NS(=O)(=O)c4ccc(NCC5CCOCC5)c([N+](=O)[O-])c4)c(Oc4cnc5[nH]ccc5c4)c3)CC2)=C(c2ccc(Cl)cc2)C1 [Venetoclax] (first compound max 1 µM, 7x7, partner max 1 µM) | -0.0952 | -0.0419 | -0.0843 | -0.0378 | -0.0095 | -0.0361 | 0.0452 | -0.0705 | -0.0621 | -0.0573 | -0.0126 | -0.0228 | -0.031 | -0.0356 | -0.015 | -0.0716 | -0.029 | -0.0441 | -0.0267 | -0.0623
C[C@@H](c1ccc2nccn2c1)n1nnc2ncc(-c3cnn(C)c3)nc21 [Savolitinib] + Cc1c2c(nn1C)CSCc1cc(n(C)n1)CSc1cc(c3ccccc3c1)OCCCc1c(C(=O)O)n(C)c3c-2c(Cl)ccc13 [AZD5991] (first compound max 1 µM, 7x7, partner max 1 µM) | -0.0204 | -0.0252 | -0.074 | -0.0315 | -0.0699 | -0.0312 | 0.0478 | -0.0228 | -0.0742 | -0.025 | -0.0046 | -0.0243 | -0.0486 | -0.0358 | -0.0063 | 0.0097 | -0.0416 | -0.0397 | -0.0402 | -0.079
